Assay results taken from US10023519B2, “Cyclobutane containing carboxylic acid GPR120 modulators” (BRISTOL-MYERS SQUIBB COMPANY, priority 2014, dated 2018).

Target: human GPR120 (Homo sapiens (Human), UniProt Q5NUL3)
Experiment: GPR120 pERK AlphaScreen SureFire Assay (human)
Type: cell-based
Details: CHO cells stably transfected with short form of human GPR120
Description: GPR120 activity was monitored by measuring phosphorylation of ERK (pERK), since G protein receptors are known to activate the ERK signaling cascade either directly and/or through recruitment of arrestin that serves as a scaffold for downstream signaling events.
GPR120 pERK AlphaScreen SureFire Assay
The human and mouse GPR120-mediated intracellular phosphorylated ERK assays were established using CHOA12 cells stably transfected with the short form of human or mouse GPR120 receptor. […] Cells were cryo preserved at a concentration of 2×10^7 cells/mL, in 90% Charcoal/Dextran FBS and 10% DMSO, and frozen in liquid nitrogen at a low passage number.
The flasks were placed in a tissue culture incubator overnight (37° C., 5% CO2). […] The next day, cells were serum starved in 30 μL of F-12 media without any serum or antibiotics for 2 hours at 37° C.
Cells were then stimulated with 50 nL of compound dilutions using ECHO liquid handler for 7 minutes at 37° C.
(§1) The lysis buffer was diluted 5-fold with water before use. […] The SureFire assay reagent mix was prepared by mixing 60 parts Reaction Buffer, 10 parts Activation Buffer, 1 part Donor Beads, 1 part Acceptor Beads (Perkin Elmer Cat. #TGRES10K). 3.5 μL/well of this reagent mix was manually added to the proxiplate with a multichannel pipettor. Plates were spun down at 1000 rpm for 2 minutes, followed by light-protected incubation at room temperature for 2 hours. The plates were read on the Alpha-technology compatible Envision multilabel plate reader using AlphaScreen protocol according to manufacturer's specifications. The agonist effect of compounds was expressed as 100× (average sample−average blank)/(average total−average blank) where sample is the luminescence activity in the presence of test compound, blank is equal to the luminescence activity in the presence of DMSO control and the total is signal induced by 50 μM linolenic acid as reference compound. Activation data for the test compound over a range of concentrations was plotted as percentage activation of the test compound (100%=maximum response). After correcting for background, EC50 values were determined.
The human and mouse GPR120-mediated intracellular phosphorylated ERK assays were also established using CHO-K1 cells stably transfected with the short form of human or mouse GPR120 receptor. […] Cells were cryo preserved at a concentration of 3×10^6 cells/mL, in 70% F-12, 20% Charcoal/Dextran FBS and 10% DMSO, and frozen in liquid nitrogen at a low passage number.
The flasks were placed in a tissue culture incubator overnight (37° C., 5% CO2).
Cells were then stimulated with 40 nL of compound dilutions using ECHO liquid handler for 7 minutes at 37° C.
as §1, with “compound.” for “compound. Activation data for the test compound over a range of concentrations was plotted as percentage activation of the test compound (100%=maximum response). After correcting for background, EC50 values were determined.”
Activation data for the test compound over a range of concentrations was plotted as percentage activation of the test compound (100%=maximum response). After correcting for background, EC50 values were determined.

human GPR120, sequence (Q5NUL3 whole entry): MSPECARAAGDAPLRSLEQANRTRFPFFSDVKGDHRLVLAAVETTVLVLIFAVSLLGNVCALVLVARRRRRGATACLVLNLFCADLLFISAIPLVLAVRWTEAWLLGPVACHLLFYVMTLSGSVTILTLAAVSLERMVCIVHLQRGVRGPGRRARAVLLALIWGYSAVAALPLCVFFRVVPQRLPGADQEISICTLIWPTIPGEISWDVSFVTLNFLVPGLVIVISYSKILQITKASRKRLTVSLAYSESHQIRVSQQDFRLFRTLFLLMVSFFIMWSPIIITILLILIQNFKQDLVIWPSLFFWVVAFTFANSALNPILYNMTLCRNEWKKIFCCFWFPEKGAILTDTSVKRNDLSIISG

In order of rising EC50:
1. CC(C)Oc1ccc(F)c(-c2ccc([C@H]3C[C@H](CC(=O)O)C3)cc2)c1 [Example 44, 2-(Trans-3-(2′-fluoro-5′-isopropoxy-[1,1′-biphenyl]-4-yl)cyclobutyl)acetic acid]  140 nM
2. CC(C)Oc1ccc(F)c(-c2ccc(C3CC(CC(=O)O)C3)cc2)c1 (centres unmarked) [Example 43, 2-(3-(2′-Fluoro-5′-isopropoxy-[1,1′-biphenyl]-4-yl)cyclobutyl)acetic acid]  210 nM
3. Cc1ccc(Oc2ccc(F)c(-c3ccc([C@H]4C[C@@H](OCC(=O)O)C4)cc3)c2)cn1 [Example 20, Cis-2-(3-(2′-fluoro-5′-((6-methylpyridin-3-yl)oxy)-[1,1′-biphenyl]-4-yl)cyclobutoxy) acetic acid]  270 nM
4. O=C(O)CO[C@H]1C[C@@H](c2ccc(-c3cc(Oc4cccc(F)c4)cnc3Cl)cc2)C1 [Example 22, Cis-2-(3-(4-(2-Chloro-5-(3-fluorophenoxy)pyridin-3-yl)phenyl)cyclobutoxy)acetic acid]  360 nM
5. O=C(O)CO[C@H]1C[C@H](c2ccc(-c3cc(Oc4ccccc4)ccc3F)cc2)C1 [Example 39, Trans-2-(3-(2′-fluoro-5′-phenoxy-[1,1′-biphenyl]-4-yl)cyclobutoxy)acetic acid]  410 nM
6. O=C(O)CO[C@H]1C[C@@H](c2ccc(-c3cc(OC4CCCC4)ccc3F)cc2)C1 [Example 3, Cis-2-(3-(5′-(cyclopentyloxy)-2′-fluoro-[1,1′-biphenyl]-4-yl)cyclobutoxy)acetic acid]  410 nM
7. Cc1ncc(Oc2ccc(F)c(-c3ccc([C@H]4C[C@@H](OCC(=O)O)C4)cc3)c2)s1 [Example 27, Cis-2-(3-(2′-fluoro-5′-((2-methylthiazol-5-yl)oxy)-[1,1′-biphenyl]-4-yl)cyclobutoxy)acetic acid]  420 nM
8. O=C(O)COCCC[C@H]1C[C@@H](c2cccc(Oc3ccccc3)c2)C1 [Example 58, 2-(3-(Cis-3-(3-phenoxyphenyl)cyclobutyl)propoxy)acetic acid]  420 nM
9. Cc1cc(OC(C)C)cc(-c2ccc([C@H]3C[C@@H](OCC(=O)O)C3)cc2)c1 [Example 12, Cis-2-(3-(3′-isopropoxy-5′-methyl-[1,1′-biphenyl]-4-yl)cyclobutoxy) acetic acid]  430 nM
10. O=C(O)CCOC[C@H]1C[C@@H](OCc2cccc(Oc3ccccc3)c2)C1 [Example 55, 3-((Cis-3-(3-phenoxybenzyloxy)cyclobutyl)methoxy)propanoic acid]  470 nM
11. O=C(O)CO[C@H]1C[C@@H](c2ccc(-c3cc(OC(F)(F)F)ccc3F)cc2)C1 [Example 17, Cis-2-(3-(2′-fluoro-5′-(trifluoromethoxy)-[1,1′-biphenyl]-4-yl)cyclobutoxy)acetic acid]  550 nM
12. CC(C)Oc1cc(Cl)cc(-c2ccc([C@H]3C[C@@H](OCC(=O)O)C3)cc2)c1 [Example 11, Cis-2-(3-(3′-chloro-5′-isopropoxy-[1,1′-biphenyl]-4-yl)cyclobutoxy) acetic acid]  560 nM
13. CC(C)Oc1ccc(F)c(-c2ccc(C[C@H]3C[C@@H](CC(=O)O)C3)cc2)c1 [Example 51, 2-(Cis-3-((2′-fluoro-5′-isopropoxy-[1,1′-biphenyl]-4-yl)methyl)cyclobutyl)acetic acid]  560 nM
14. C[C@]1(CCCOCCC(=O)O)C[C@@H](c2cccc(Oc3ccccc3)c2)C1 [Example 62, 3-(3-(Cis-1-methyl-3-(3-phenoxyphenyl)cyclobutyl)propoxy)propanoic acid]  570 nM
15. Cis-2-(3-(2′,3′-difluoro- 5′-(3- fluorophenoxy)-[1,1′- biphenyl]-4-yl)cyclobutoxy) acetic acid [Example 37]  590 nM
16. CC(C)Oc1ccc(F)c(-c2ccc([C@H]3C[C@@H](CCC(=O)O)C3)cc2)c1 [Example 46, Cis-3-(3-(2′-fluoro-5′-isopropoxy-[1,1′-biphenyl]-4-yl)cyclobutyl)propanoic acid]  650 nM
17. O=C(O)CO[C@H]1C[C@@H](c2ccc(-c3cc(Oc4cccnc4)ccc3F)cc2)C1 [Example 28, Cis-2-(3-(2′-fluoro-5′-(pyridin-3-yloxy)-[1,1′-biphenyl]-4-yl)cyclobutoxy) acetic acid]  660 nM
18. O=C(O)COCCC1CC(OCc2cccc(Oc3ccccc3)c2)C1 (centres unmarked) [Example 57, 2-(2-(3-(3-Phenoxybenzyloxy)cyclobutyl)ethoxy)acetic acid]  700 nM
19. Cc1ccc(Oc2ccc(F)c(-c3ccc([C@H]4C[C@@H](OCC(=O)O)C4)cc3)c2)cc1 [Example 31, Cis-2-(3-(2′-fluoro-5′-(p-tolyloxy)-[1,1′-biphenyl]-4-yl)cyclobutoxy)acetic acid]  710 nM
20. C[C@]1(CCCOCC(=O)O)C[C@@H](c2cccc(Oc3ccccc3)c2)C1 [Example 60, 2-(3-(Cis-1-methyl-3-(3-phenoxyphenyl)cyclobutyl)propoxy)acetic acid]  740 nM
21. CC(C)Oc1ccc(F)c(-c2ccc(CC3CC(C(=O)O)C3)cc2)c1 (single isomer, unassigned) [Example 48, 3-((2′-Fluoro-5′-isopropoxy-[1,1′-biphenyl]-4-yl)methyl)cyclobutanecarboxylic acid]  790 nM
22. O=C(O)CO[C@H]1C[C@@H](c2ccc(-c3cccc(C(=O)c4ccccc4)c3)cc2)C1 [Example 14, Cis-2-(3-(3′-benzoyl-[1,1′-biphenyl]-4-yl)cyclobutoxy) acetic acid]  830 nM
23. CC(C)Oc1ccc(F)c(-c2ccc(C[C@H]3C[C@H](CC(=O)O)C3)cc2)c1 [Example 52, 2-(Trans-3-((2′-fluoro-5′-isopropoxy-[1,1′-biphenyl]-4-yl)methyl)cyclobutyl)acetic acid]  940 nM
24. CC(C)Oc1ccc(F)c(-c2ccc(C3CC4(C3)CC4C(=O)O)cc2)c1 (single isomer, unassigned) [Example 42, 5-(2′-Fluoro-5′-isopropoxy-[1,1′-biphenyl]-4-yl)spiro[2.3]hexane-1-carboxylic acid]  2210 nM
25. CC(C)Sc1ncc(C(F)(F)F)cc1-c1ccc([C@H]2C[C@@H](OCC(=O)O)C2)cc1 [Example 13, Cis-2-(3-(4-(2-(isopropylthio)-5-(trifluoromethyl)pyridin-3-yl)phenyl)cyclobutoxy)acetic acid]  2610 nM
26. CC(C)Oc1cc(F)cc(-c2ccc([C@H]3C[C@@H](OCC(=O)O)C3)cc2)c1 [Example 18, Cis-2-(3-(3′-fluoro-5′-isopropoxy-[1,1′-biphenyl]-4-yl)cyclobutoxy) acetic acid]  3130 nM
27. Cc1nc(-c2ccccc2)c(-c2ccc([C@H]3C[C@@H](OCC(=O)O)C3)cc2)s1 [Example 23, Cis-2-(3-(4-(2-Methyl-4-phenylthiazol-5-yl)phenyl)cyclobutoxy)acetic acid]  3460 nM
28. O=C(O)[C@H]1CC1[C@H]1C[C@@H](c2ccc(-c3cc(Oc4ccccc4)ccc3F)cc2)C1 (stereo in doubt) [Example 40, 2-(3-(2′-Fluoro-5′-phenoxy-[1,1′-biphenyl]-4-yl)cyclobutyl)cyclopropanecarboxylic acid]  9270 nM
29. CC(C)Oc1ccc(F)c(-c2ccc(C3CC4(C3)CC4C(=O)O)cc2)c1 (single isomer, unassigned) [Example 41, 5-(2′-Fluoro-5′-isopropoxy-[1,1′-biphenyl]-4-yl)spiro[2.3]hexane-1-carboxylic acid]  32000 nM
